# Source: ChEMBL document CHEMBL4834491, “Novel Compounds for Treating Malaria” (ACS Med Chem Lett, 2021)
# System: Plasmodium falciparum
# Experiment: Antimalarial activity against Plasmodium falciparum assessed as reduction in parasite growth after 72 hrs by LDH assay
# Assay type: functional, organism-based
row,SMILES,EC50 [nM]
1,CCC1(CC)CC(=O)N([C@H](c2cccnc2)[C@@H]2C(C)[C@H]2C(=O)N[C@H]2CC(C)(C)Oc3ccccc32)C(=N)N1 (stereo partly specified),0.7
2,CC[C@]1(C)CC(=O)N([C@H](c2cncc(F)c2)[C@@H]2C[C@H]2C(=O)N[C@H]2C[C@H](C(F)(F)F)Oc3ccccc32)C(=N)N1,0.3
3,CC[C@@]1(C)CC(=O)N([C@H](c2cncc(F)c2)[C@@H]2C[C@H]2C(=O)N[C@H]2CC(C)(C)Oc3ccccc32)C(=N)N1,0.6
4,CC[C@]1(C)CC(=O)N([C@H](c2cncc(F)c2)[C@@H]2C[C@H]2C(=O)N[C@H]2CC(C)(C)Oc3ccc(F)cc32)C(=N)N1,0.3
5,CCC1(CC)CC(=O)N([C@H](CCCC(C)OC)[C@@H]2C[C@H]2C(=O)N[C@H]2CC(C)(C)Oc3ccccc32)C(=N)N1 (stereo partly specified),0.7
6,CC1(C)CC(=O)N([C@H](c2cncc(Cl)c2)[C@@H]2C[C@H]2C(=O)N[C@H]2C[C@H](C(F)(F)F)Oc3ccccc32)C(=N)N1,0.5
